Measured values published in PubChem BioAssay (NCI).
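Growth conditions: 96-well plates. Treatment: test compound, 48 hours, 5 concentrations. Analysis: linear interpolation between bracketing concentrations; unreached endpoints set to highest concentration. TGI: concentration producing complete growth inhibition.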

Experiments:
Experiment in all cases: NCI anticancer screen, dose series, 48 h
SR leukemia = tested on: SR leukemia
NCI/ADR-RES ovarian = tested on: NCI/ADR-RES ovarian
OVCAR-3 ovarian = tested on: OVCAR-3 ovarian
HCT-15 colon = tested on: HCT-15 colon
HL-60(TB) leukemia = tested on: HL-60(TB) leukemia
HOP-62 NSCLC = tested on: HOP-62 NSCLC
SK-MEL-28 melanoma = tested on: SK-MEL-28 melanoma
HOP-92 NSCLC = tested on: HOP-92 NSCLC
CAKI-1 renal = tested on: CAKI-1 renal
ACHN renal = tested on: ACHN renal
U251 CNS = tested on: U251 CNS
SW-620 colon = tested on: SW-620 colon
MDA-N = tested on: MDA-N
MALME-3M melanoma = tested on: MALME-3M melanoma
SF-539 CNS = tested on: SF-539 CNS
HS 578T breast = tested on: HS 578T breast
OVCAR-8 ovarian = tested on: OVCAR-8 ovarian
RPMI-8226 leukemia = tested on: RPMI-8226 leukemia

SMILES | TGI (SR leukemia) [µM] | TGI (NCI/ADR-RES ovarian) [µM] | TGI (OVCAR-3 ovarian) [µM] | TGI (HCT-15 colon) [µM] | TGI (HL-60(TB) leukemia) [µM] | TGI (HOP-62 NSCLC) [µM] | TGI (SK-MEL-28 melanoma) [µM] | TGI (HOP-92 NSCLC) [µM] | TGI (CAKI-1 renal) [µM] | TGI (ACHN renal) [µM] | TGI (U251 CNS) [µM] | TGI (SW-620 colon) [µM] | TGI (MDA-N) [µM] | TGI (MALME-3M melanoma) [µM] | TGI (SF-539 CNS) [µM] | TGI (HS 578T breast) [µM] | TGI (OVCAR-8 ovarian) [µM] | TGI (RPMI-8226 leukemia) [µM]
CC(C)NC(NC(C)C)=C(S(=O)(=O)C(F)(F)C(F)(F)C(F)(F)C(F)(F)F)S(=O)(=O)C(F)(F)C(F)(F)C(F)(F)C(F)(F)F | > 100 | > 100 | > 100 | > 100 | > 100 | > 100 | > 100 | > 100 | > 100 | > 100 | > 100 | > 100 | > 100 | > 100 | > 100 | > 100 | > 100 | > 100
COc1nc(N=P(c2ccccc2)(c2ccccc2)c2ccccc2)cc(=O)[nH]1 | > 100 | > 100 | > 100 | > 100 | > 100 | > 100 | > 100 | > 100 | > 100 | > 100 | > 100 | > 100 | > 100 | > 100 | > 100 | > 100 | > 100 | > 100
CCCCCCCCCCCCN(CC(O)C(O)C(OC1OC(CO)C(O)C(O)C1O)C(O)CO)C(=O)CCCCCCCCCCC (stereo not drawn) | 57.8 | 49.7 | 49.2 | 35.4 | > 100 | 55.6 | 31.9 | 39.5 | 33.3 | 31 | 32.6 | 33.6 | 38.2 | 36 | > 100 | 82.7 | 46.7 | 50.9
CN(C)/N=C(/CC(O)(C(F)(F)F)C(F)(F)F)c1ccc([N+](=O)[O-])cc1 | > 100 | > 100 | > 100 | > 100 | > 100 | > 100 | > 100 | > 100 | > 100 | > 100 | > 100 | > 100 | > 100 | > 100 | > 100 | > 100 | > 100 | > 100
OC1(c2ccc(Cl)cc2)C(N2CCCC2)c2ccccc2C2=NCCN21 (stereo not drawn) | 41.1 | 59.9 | > 100 | > 100 | 50.7 | > 100 | 31.9 | 62.9 | 94.6 | > 100 | > 100 | > 100 | 51.4 | 36.9 | 39.4 | 89.9 | 58.8 | 32.1
COC(=O)C1=C(O)C(C(=O)OC)[C@]2(O)[C@H](C(=O)OC)[C@H]1C[C@@H](c1ccc(Cl)cc1)[C@H]2C(=O)OC (stereo partly drawn) | > 100 | > 100 | 13.4 | 47.7 | 12.9 | 24 | 21.4 | 73.6 | > 100 | 39.9 | 20.9 | > 100 | 22.5 | 25.1 | 20.9 | 30.2 | > 100 | > 100
